# Reference: US20250344734A1, “UNSATURATED FATTY ACIDS AND THEIR USE TO MODIFY TASTE” (Firmenich Incorporated, priority 2022, published 2025)
# Experiments:
# Format in all cases: cell-based
# Details in all cases: unsaturated fatty acid concentration of 200 µM, cells stimulated with known bitter agonist
# T2R03 (TAS2R03) = biological target: T1, T2R03 (TAS2R03) (Homo sapiens, UniProt Q9NYW6); test: FLIPR calcium assay, block of bitter agonist response, T2R03
# T1 construct: expressed in transfected cells; host or cells: cells expressing a promiscuous G protein (e.g., G16g44)
# T1 sequence (Q9NYW6 1-316): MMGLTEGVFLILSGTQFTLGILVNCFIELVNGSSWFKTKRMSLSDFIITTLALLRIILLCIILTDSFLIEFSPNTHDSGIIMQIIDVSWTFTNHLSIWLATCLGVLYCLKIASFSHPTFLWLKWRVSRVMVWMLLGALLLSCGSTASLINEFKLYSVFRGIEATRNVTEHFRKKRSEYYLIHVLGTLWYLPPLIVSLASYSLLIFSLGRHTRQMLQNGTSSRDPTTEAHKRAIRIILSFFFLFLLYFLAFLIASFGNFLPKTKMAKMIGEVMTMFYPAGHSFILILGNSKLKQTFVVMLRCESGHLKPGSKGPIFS
# Experimental: (§1) Cells expressing a promiscuous […] (e.g., G16g44) were transfected with vectors encoding 18 functional bitter receptor cDNAs, with one receptor per transfection. The cells were transfected directly in 384-well format high-density plates and incubated for 28 hours. Later, cells were loaded with the Ca-specific dye Fluo4-AM. After an incubation of 60 minutes, excess dye is washed off, and cells are stimulated with a known bitter agonist for each receptor and various unsaturated fatty acids. Changes in intracellular fluorescence are recorded using a FLIPR instrument. Bitter antagonists and corresponding receptors are identified based on percentage inhibition of agonist's activity on a given receptor.
# (§2) The above protocol was carried out using 16 different unsaturated fatty acids. A particular T2R receptor was identified as being antagonized by a particular unsaturated fatty acid if it triggered a >25% block of agonist's cellular response at 200 μM concentration of unsaturated fatty acid. […] Table 2 indicates the sixteen (16) compounds tested by their compound number from Table 1 above. The 18 bitter taste receptors screened are the human bitter taste receptors we named. […]
# T2R04 (TAS2R04) = biological target: T2, T2R04 (TAS2R04) (Homo sapiens, UniProt Q9NYW5); test: FLIPR calcium assay, block of bitter agonist response, T2R04
# T2 construct: expressed in transfected cells; host or cells: cells expressing a promiscuous G protein (e.g., G16g44)
# T2 sequence (Q9NYW5 1-299): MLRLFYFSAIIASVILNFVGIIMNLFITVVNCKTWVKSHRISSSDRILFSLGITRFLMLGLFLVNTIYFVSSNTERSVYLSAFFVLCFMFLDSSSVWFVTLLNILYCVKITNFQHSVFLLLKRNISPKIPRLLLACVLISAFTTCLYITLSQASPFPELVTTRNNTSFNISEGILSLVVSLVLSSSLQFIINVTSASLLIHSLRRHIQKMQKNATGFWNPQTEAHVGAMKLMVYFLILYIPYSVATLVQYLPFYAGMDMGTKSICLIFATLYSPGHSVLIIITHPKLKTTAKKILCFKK
# Experimental: as §1, §2
# T2R54 (TAS2R39) = biological target: T3, T2R54 (TAS2R39 (Homo sapiens, UniProt P59534)); test: FLIPR calcium assay, block of bitter agonist response, T2R54
# T3 construct: expressed in transfected cells; host or cells: cells expressing a promiscuous G protein (e.g., G16g44)
# T3 sequence (P59534 1-338): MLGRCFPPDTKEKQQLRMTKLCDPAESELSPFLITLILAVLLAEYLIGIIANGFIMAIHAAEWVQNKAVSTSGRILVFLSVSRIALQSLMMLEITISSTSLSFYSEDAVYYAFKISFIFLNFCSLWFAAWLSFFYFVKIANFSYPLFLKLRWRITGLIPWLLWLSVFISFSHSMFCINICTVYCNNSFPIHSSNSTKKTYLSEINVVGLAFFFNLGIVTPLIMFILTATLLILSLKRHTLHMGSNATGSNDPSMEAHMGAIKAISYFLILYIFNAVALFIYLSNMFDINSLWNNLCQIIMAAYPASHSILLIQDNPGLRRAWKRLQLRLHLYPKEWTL
# Experimental: as §1
# The above protocol was carried out using 16 different unsaturated fatty acids. A particular T2R receptor was identified as being antagonized by a particular unsaturated fatty acid if it triggered a >25% block of agonist's cellular response at 200 μM concentration of unsaturated fatty acid. […] Table 2 indicates the sixteen (16) compounds tested by their compound number from Table 1 above. The 18 bitter taste receptors screened are the human bitter taste receptors we named. T2R01 (TAS2R01), T2R03 (TAS2R03), T2R04 (TAS2R04), T2R07 (TAS2R07), T2R08 (TAS2R08), T2R09 (TAS2R09), T2R10 (TAS2R10), T2R13 (TAS2R13), T2R14 (TAS2R14), T2R16 (TAS2R16), T2R54 (TAS2R39, T2R61 (TAS2R43), T2R63 (TA2R20), T2R64 (TAS2R31), T2R65 (TAS2R19), T2R67 (TAS2R50), T2R71 (TAS2R41), and T2R75 (TAS2R46). The corresponding IUPHAR nomenclature for each receptor is given in parenthesis. In Table 2, these receptors are identified by the last two digits. For example, T2R01 is indicated as 01. Table 2 reports the percentage block of cellular response over baseline at an unsaturated fatty acid concentration of 200 µM.
# T2R64 (TAS2R31) = biological target: T4, T2R64 (TAS2R31) (Homo sapiens, UniProt P59538); test: FLIPR calcium assay, block of bitter agonist response, T2R64
# T4 construct: expressed in transfected cells; host or cells: cells expressing a promiscuous G protein (e.g., G16g44)
# T4 sequence (P59538 1-309): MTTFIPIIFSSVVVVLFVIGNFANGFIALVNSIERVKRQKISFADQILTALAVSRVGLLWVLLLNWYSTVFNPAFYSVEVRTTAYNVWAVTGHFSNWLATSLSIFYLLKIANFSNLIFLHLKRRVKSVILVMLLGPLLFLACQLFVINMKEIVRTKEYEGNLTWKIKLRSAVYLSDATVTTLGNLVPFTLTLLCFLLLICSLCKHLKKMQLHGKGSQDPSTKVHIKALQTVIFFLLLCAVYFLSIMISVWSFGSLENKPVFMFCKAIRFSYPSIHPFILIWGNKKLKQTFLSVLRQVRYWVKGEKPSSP
# Experimental: as §1, §2
# T2R65 (TAS2R19) = biological target: T5, T2R65 (TAS2R19) (Homo sapiens, UniProt P59542); test: FLIPR calcium assay, block of bitter agonist response, T2R65
# T5 construct: expressed in transfected cells; host or cells: cells expressing a promiscuous G protein (e.g., G16g44)
# T5 sequence (P59542 1-299): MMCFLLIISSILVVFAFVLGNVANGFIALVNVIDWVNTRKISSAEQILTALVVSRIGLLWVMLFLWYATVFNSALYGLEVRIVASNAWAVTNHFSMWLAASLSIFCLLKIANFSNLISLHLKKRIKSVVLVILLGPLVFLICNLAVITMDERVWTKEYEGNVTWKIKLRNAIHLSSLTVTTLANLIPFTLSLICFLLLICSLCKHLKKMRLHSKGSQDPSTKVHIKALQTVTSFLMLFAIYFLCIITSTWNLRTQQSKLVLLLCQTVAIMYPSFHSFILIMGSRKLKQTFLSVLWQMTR
# Experimental: as §1, §2
# T2R71 (TAS2R41) = biological target: T6, T2R71 (TAS2R41) (Homo sapiens, UniProt P59536); test: FLIPR calcium assay, block of bitter agonist response, T2R71
# T6 construct: expressed in transfected cells; host or cells: cells expressing a promiscuous G protein (e.g., G16g44)
# T6 sequence (P59536 1-307): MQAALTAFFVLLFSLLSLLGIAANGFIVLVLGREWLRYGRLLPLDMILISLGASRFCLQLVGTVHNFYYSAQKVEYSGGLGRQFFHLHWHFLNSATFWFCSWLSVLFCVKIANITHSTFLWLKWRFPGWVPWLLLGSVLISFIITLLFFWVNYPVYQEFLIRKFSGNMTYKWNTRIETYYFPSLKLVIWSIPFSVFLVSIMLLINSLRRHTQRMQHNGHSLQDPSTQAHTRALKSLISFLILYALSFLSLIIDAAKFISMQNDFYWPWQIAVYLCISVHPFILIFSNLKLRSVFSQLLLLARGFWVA
# Experimental: as §1, §2
structure (smiles),measurement,setting,value
CC(C)=CCC/C(C)=C/C(=O)O [Compound 129],"percentage block of cellular response over baseline, 03",T2R03 (TAS2R03),>45%
same,"percentage block of cellular response over baseline, 04",T2R04 (TAS2R04),>90%
same,"percentage block of cellular response over baseline, 54",T2R54 (TAS2R39),90%
same,"percentage block of cellular response over baseline, 64",T2R64 (TAS2R31),>85%
same,"percentage block of cellular response over baseline, 65",T2R65 (TAS2R19),>35%
same,"percentage block of cellular response over baseline, 71",T2R71 (TAS2R41),30%
